The target of one test is ROCK2 (Homo sapiens (Human), UniProt O75116). Kind of test: ROCK2 assay (kinase inhibition, FITC peptide substrate, LABCHIP 3000 Reader). It counts as biochemical. The note with it: 5 μM ATP, 1.5 μM peptide substrate.
Test [1] relates to ROCK. The note with it: rat, in vivo; cited from earlier work.
Test [2] deals with ROCK. The note with it: long term treatment; cited from earlier work.

By IC50 is commonly meant the concentration at which inhibition is half-maximal. Lower therefore signals greater potency in that assay.

Sequence of ROCK2 (O75116 whole entry, species assumed): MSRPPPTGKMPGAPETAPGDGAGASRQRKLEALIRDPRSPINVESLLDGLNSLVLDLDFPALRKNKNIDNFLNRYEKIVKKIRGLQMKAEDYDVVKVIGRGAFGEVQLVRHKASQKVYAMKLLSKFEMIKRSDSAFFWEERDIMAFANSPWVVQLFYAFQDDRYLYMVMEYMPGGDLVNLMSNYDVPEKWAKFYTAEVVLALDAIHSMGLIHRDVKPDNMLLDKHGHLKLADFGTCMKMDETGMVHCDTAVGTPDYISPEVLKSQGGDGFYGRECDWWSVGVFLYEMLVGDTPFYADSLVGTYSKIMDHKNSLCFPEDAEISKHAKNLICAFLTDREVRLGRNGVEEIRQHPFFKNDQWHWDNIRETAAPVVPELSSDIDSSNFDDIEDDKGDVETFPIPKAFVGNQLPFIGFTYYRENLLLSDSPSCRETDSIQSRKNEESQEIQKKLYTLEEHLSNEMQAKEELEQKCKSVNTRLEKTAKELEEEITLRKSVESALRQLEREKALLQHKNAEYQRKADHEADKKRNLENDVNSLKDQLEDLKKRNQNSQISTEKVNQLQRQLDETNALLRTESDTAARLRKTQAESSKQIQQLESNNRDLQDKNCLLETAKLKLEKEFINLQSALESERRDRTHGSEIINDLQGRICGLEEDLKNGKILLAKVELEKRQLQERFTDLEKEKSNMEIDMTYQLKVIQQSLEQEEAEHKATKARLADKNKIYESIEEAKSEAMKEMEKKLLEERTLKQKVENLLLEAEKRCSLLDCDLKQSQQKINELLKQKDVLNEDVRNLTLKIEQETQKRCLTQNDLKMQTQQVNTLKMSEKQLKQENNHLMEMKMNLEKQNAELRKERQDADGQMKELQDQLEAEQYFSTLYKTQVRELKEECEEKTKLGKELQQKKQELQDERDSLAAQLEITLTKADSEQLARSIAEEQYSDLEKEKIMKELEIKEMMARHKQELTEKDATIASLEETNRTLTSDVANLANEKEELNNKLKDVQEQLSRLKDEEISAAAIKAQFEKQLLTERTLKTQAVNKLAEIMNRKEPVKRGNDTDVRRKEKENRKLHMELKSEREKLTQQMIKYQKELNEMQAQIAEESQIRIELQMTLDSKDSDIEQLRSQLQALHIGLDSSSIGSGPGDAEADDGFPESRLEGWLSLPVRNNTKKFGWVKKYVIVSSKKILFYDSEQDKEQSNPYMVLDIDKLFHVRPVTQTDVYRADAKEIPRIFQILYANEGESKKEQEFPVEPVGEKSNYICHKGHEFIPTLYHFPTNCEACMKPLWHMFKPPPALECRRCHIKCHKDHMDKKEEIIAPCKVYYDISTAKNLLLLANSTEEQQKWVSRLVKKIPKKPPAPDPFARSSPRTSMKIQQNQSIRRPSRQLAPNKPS

`NC(=O)c1sc(C2CC2)nc1O[C@H]1C[C@@]2(C[C@H](NC(=O)c3cnn4cc(OCC(F)(F)F)ccc34)C2)C1` (stereo partly drawn) [Example 62, 2-cyclopropyl-4-{[(aR)-6-[6-(2,2,2-trifluoroethoxy)pyra-zolo[1,5-a]pyridine-3-amido]spiro[3.3]hep-tan-2-yl]oxy}-1,3-thiazole-5-carboxamide]: the half-maximal inhibitory concentration (IC50) on ROCK2 came to 11.6 nM.

The molecule `COCCn1cc(C(N)=O)c(O[C@H]2CC3(C[C@H](NC(=O)c4cnn5c(C6CC6)c(OCC(C)(C)O)ccc45)C3)C2)n1` (stereo partly drawn) [Example 23, 3-({(aR)-6-[7-cyclopropyl-6-(2-hydroxy-2-methylpropoxy)pyra-zolo[1,5-a]pyridine-3-amido]spiro[3.3]hep-tan-2-yl}oxy)-1-(2-methoxyethyl)-1H-pyrazole-4-carboxamide] returned an IC50 against ROCK2 of 77.7 nM.

In turn, `CC(C)(O)COc1ccc2c(C(=O)N[C@H]3C[C@]4(C3)C[C@H](Oc3c(C(N)=O)cnn3CCCN)C4)cnn2c1C1CC1` (stereo partly drawn) [Example 28, 1-(3-aminopropyl)-5-({(aR)-6-[7-cyclopropyl-6-(2-hydroxy-2-methylpropoxy)pyra-zolo[1,5-a]pyridine-3-amido]spiro[3.3]hep-tan-2-yl}oxy)-1H-pyrazole-4-carboxamide] had a concentration for half-maximal inhibition (IC50) at ROCK2 of 551 nM.

On ROCK2, `Cc1ccn2nc(O[C@H]3CC4(C[C@H](NC(=O)c5nn(C(F)F)c6cc(OCC(C)(C)O)ccc56)C4)C3)c(C(N)=O)c2c1` (stereo partly drawn) [Example 132, 1-(difluoromethyl)-6-(2-hydroxy-2-methylpropoxy)-N-[(4s)-6-({3-carbamoyl-5-methylpyrazolo[1,5-a]pyridin-2-yl}oxy)spiro[3.3]heptan-2-yl]-1H-indazole-3-carboxamide] had an IC50 of 223 nM.

In turn, `NC(=O)c1c(O[C@H]2CC3(C[C@H](NC(=O)c4cnn5cc(OCC(F)F)ccc45)C3)C2)nn2ccccc12` (stereo partly drawn) [Example 122, 2-{[(4s)-6-[6-(2,2-difluoroethoxy)pyrazolo[1,5-a]pyridine-3-amido]spiro[3.3]heptan-2-yl]oxy}pyrazolo[1,5-a]pyridine-3-carboxamide] yielded an IC50 at ROCK2 of 117 nM.

As to `CCn1cc(C(N)=O)c(O[C@H]2CC3(C[C@H](NC(=O)c4cnn5c(C6CC6)c(OCC(C)(C)O)ccc45)C3)C2)n1` (stereo partly drawn) [Example 19, 3-({(aR)-6-[7-cyclopropyl-6-(2-hydroxy-2-methylpropoxy)pyra-zolo[1,5-a]pyridine-3-amido]spiro[3.3]hep-tan-2-yl}oxy)-1-ethyl-1H-pyrazole-4-carboxamide], at ROCK2, the IC50 came out at 10.5 nM.

The molecule “2-cyclopropyl-4- {[(aR)-6-{4-[(1R)- 1-hydroxyethyl]- 2,5- dioxoimidazolidin- 1- yl}spiro[3.3]heptan- 2-yl]oxy}-1,3- thiazole-5- carboxamide [Example 109]” displayed an IC50 against ROCK2 of 330 nM.

Consider `O=S(=O)(c1cccc2cnccc12)N1CCCNCC1` [fasudil], for which the “infarct size and neurologic deficit” value in the test with ROCK [1] is “reduce both the infarct size and neurologic deficit”. In addition, in the test on ROCK [2], the coronary constrictive remodeling result is reported as “promote a regression of coronary constrictive remodeling” and the coronary stenosis entry is on record as “progressively reduce coronary stenosis”.

The molecule `Cc1sc2cc(C(N)=O)c(O[C@H]3C[C@@]4(C[C@H](NC(=O)c5nnc(NCC(C)C)s5)C4)C3)nc2c1C` (stereo partly drawn) [Example 162, 5-[(2-methylpropyl)amino]-N-[(4s)-6-({6-carbamoyl-2,3-dimethylthieno[3,2-b]pyridin-5-yl}oxy)spiro[3.3]heptan-2-yl]-1,3,4-thiadiazole-2-carboxamide] returned a concentration for half-maximal inhibition (IC50) on ROCK2 of 162 nM.

Consider `[H][C@]1(Oc2c(C(N)=O)sc3ccccc23)C[C@]2(C[C@@H](NC(=O)c3cnn4c(C5CC5)c(OCC(C)(C)O)ccc34)C2)C1` (stereo partly drawn) [Example 2, N-((aR)-6-((2-Carbamoylbenzo[b]thiophen-3-yl)oxy)spiro[3.3]heptan-2-yl)-7-cyclopropyl-6-(2-hydroxy-2-methylpropoxy)pyrazolo[1,5-a]pyridine-3-carboxamide], for which, on ROCK2, the concentration for half-maximal inhibition (IC50) was determined as 20 nM.
